Data set [1] deals with Plasmodium berghei. Briefly: Antiplasmodial activity against GFP-expressing liver stage Plasmodium berghei sporozoites infected in human Huh7 cells preincubated for 1 hr before infection at 1 uM measured after 48 hrs post infection by firefly luciferase reporter gene assay. The class given is functional. The following applies: Huh-7. (In general: A reporter such as luciferase makes a cellular process visible.)

For data set [2], the system named is Plasmodium berghei. Description: Antiplasmodial activity against GFP-expressing liver stage Plasmodium berghei sporozoites infected in human Huh7 cells preincubated for 1 hr before infection at 5 uM measured after 48 hrs post infection by firefly luciferase reporter gene assay. In kind it is functional. The following applies: Huh-7.
A short description of data set [3]: Cytotoxicity against human HuH7 cells up to 15 uM after 48 hrs by Alamar Blue assay. In kind it is cell-based. The following applies: huh-7, 48 h. A general note: Alamar Blue is a resazurin reagent that responds to reducing activity.
The subject of data set [4] is Plasmodium berghei. Briefly: Antiplasmodial activity against GFP-expressing liver stage Plasmodium berghei sporozoites infected in human Huh7 cells preincubated for 1 hr before infection at 15 uM measured after 48 hrs post infection by firefly luciferase reporter gene assay. The note with it: Huh-7. The class given is functional.
Data set [5] has as its system Plasmodium berghei. Briefly: Antiplasmodial activity against GFP-expressing liver stage Plasmodium berghei sporozoites infected in human Huh7 cells preincubated for 1 hr before infection measured after 48 hrs post infection by firefly luciferase reporter gene assay. The class given is functional, organism-based. The note with it: Huh-7.

Active and inactive are the calls of the source. The calls are words filed in the database; no cut-off is given here.

As a reminder, the inhibition is the percentage by which the read-out fell short of the control.

`CO[C@H]1C=C2[C@@H](CC[C@H](O)C2(C)C)[C@]2(C)CC[C@]3(C)[C@@H]([C@H](C)C[C@H](C=C(C)C)OC(C)=O)CC[C@@]3(C)[C@H]12` [KARAVOATE A] displayed an inhibition at 1 µM with Plasmodium berghei [1] of 28%. In addition, the inhibition at 5 µM in the data set with Plasmodium berghei [2] worked out at 93%. In data set [3], the Activity result is reported as “Toxic”.

`CO[C@H]1C=C2[C@@H](CC[C@H](OC(=O)c3ccccc3)C2(C)C)[C@]2(C)CC[C@]3(C)[C@@H]([C@H](C)C[C@H](C=C(C)C)OC(=O)c4ccccc4)CC[C@@]3(C)[C@H]12` [KARAVOATE H]: the inhibition result in the data set on Plasmodium berghei [1], in the data set with Plasmodium berghei [2] and in the data set with Plasmodium berghei [4] was “inactive” each time. Moreover, in data set [3], the Activity entry is reported as “Non-toxic”.

In turn, `CCCC(=O)O[C@H]1CC[C@@H]2C(=C[C@H](OC)[C@@H]3[C@@]2(C)CC[C@]2(C)[C@@H]([C@H](C)C[C@H](C=C(C)C)OC(=O)CCC)CC[C@@]32C)C1(C)C` [KARAVOATE F] showed an inhibition at 1 µM in the data set with Plasmodium berghei [1] of 11%. This compound also gave an inhibition at 5 µM with Plasmodium berghei [2] of 64%. In addition, the inhibition at 15 µM in the data set with Plasmodium berghei [4] worked out at 82%. Further, in data set [3], the Activity entry is listed as “Non-toxic”.

As to `CC(=O)O[C@H]1C=C2[C@@H](CC[C@H](OC(C)=O)C2(C)C)[C@]2(C)CC[C@]3(C)[C@@H]([C@H](C)C[C@H](C=C(C)C)OC(C)=O)CC[C@@]3(C)[C@H]12` [TRIACETYLBALSAMINOL F], the inhibition result in the data set on Plasmodium berghei [1], in the data set with Plasmodium berghei [2] and in the data set on Plasmodium berghei [4] was “Active” each time. Moreover, in data set [3], the Activity entry is given as “Non-toxic”.

`CO[C@H]1C=C2[C@@H](CC[C@H](OC(C)=O)C2(C)C)[C@]2(C)CC[C@]3(C)[C@@H]([C@H](C)C[C@H](C=C(C)C)OC(C)=O)CC[C@@]3(C)[C@H]12` [KARAVOATE B] gave an inhibition at 1 µM in the data set on Plasmodium berghei [1] of 60%. In the data set with Plasmodium berghei [2], the inhibition at 5 µM was 96%. Besides, in the data set on Plasmodium berghei [4], the inhibition at 15 µM is 99%. Besides, the inhibition entry in the data set on Plasmodium berghei [5] is “Dose-dependent effect”. Moreover, the Activity entry in data set [3] is “Non-toxic”.

Take `COc1ccc(C(=O)O[C@H]2CC[C@@H]3C(=C[C@H](OC)[C@@H]4[C@@]3(C)CC[C@]3(C)[C@@H]([C@H](C)C[C@H](C=C(C)C)OC(=O)c5ccc(OC)cc5)CC[C@@]43C)C2(C)C)cc1` [KARAVOATE N]: the inhibition result in the data set on Plasmodium berghei [1], with Plasmodium berghei [2] and in the data set on Plasmodium berghei [4] was “inactive” in each case. The Activity result in data set [3] is reported as “Non-toxic”.

As for `CO[C@H]1C=C2[C@@H](CC[C@H](O)C2(C)C)[C@]2(C)CC[C@]3(C)[C@@H]([C@H](C)C[C@@H](O)C=C(C)C)CC[C@@]3(C)[C@H]12` [KARAVELAGENIN C], in the data set on Plasmodium berghei [1], the inhibition at 1 µM was found to be 27%. Further, the inhibition at 5 µM with Plasmodium berghei [2] was 73%. The compound also had an inhibition at 15 µM with Plasmodium berghei [4] of 99%. The Activity result in data set [3] is on record as “Non-toxic”.

Compound `CO[C@H]1C=C2[C@@H](CC[C@H](O)C2(C)C)[C@]2(C)CC[C@]3(C)[C@@H]([C@H](C)C[C@H](C=C(C)C)OC(=O)c4ccc([N+](=O)[O-])cc4)CC[C@@]3(C)[C@H]12` [KARAVOATE I] gave an inhibition at 1 µM with Plasmodium berghei [1] of 34%. This compound also displayed an inhibition at 5 µM with Plasmodium berghei [2] of 88%. The compound also displayed an inhibition at 15 µM in the data set on Plasmodium berghei [4] of 97%. Besides, in data set [3], the Activity entry is “Non-toxic”.

Regarding `CO[C@H]1C=C2[C@@H](CC[C@H](OC(=O)c3ccc([N+](=O)[O-])cc3)C2(C)C)[C@]2(C)CC[C@]3(C)[C@@H]([C@H](C)C[C@H](C=C(C)C)OC(=O)c4ccc([N+](=O)[O-])cc4)CC[C@@]3(C)[C@H]12` [KARAVOATE J], the inhibition entry with Plasmodium berghei [1], with Plasmodium berghei [2] and in the data set with Plasmodium berghei [4] was “inactive” in each case. In addition, in data set [3], the Activity entry is given as “Non-toxic”.

Compound `CCC(=O)O[C@@H](C=C(C)C)C[C@@H](C)[C@H]1CC[C@@]2(C)[C@@H]3[C@@H](OC)C=C4[C@@H](CC[C@H](O)C4(C)C)[C@]3(C)CC[C@]12C` [KARAVOATE C] showed an inhibition at 1 µM in the data set on Plasmodium berghei [1] of 13%. This compound also yielded an inhibition at 5 µM with Plasmodium berghei [2] of 60%. Further, the Activity result in data set [3] is recorded as “Non-toxic”.

Compound `CCC(=O)O[C@H]1CC[C@@H]2C(=C[C@H](OC)[C@@H]3[C@@]2(C)CC[C@]2(C)[C@@H]([C@H](C)C[C@H](C=C(C)C)OC(=O)CC)CC[C@@]32C)C1(C)C` [KARAVOATE D] showed an inhibition at 1 µM with Plasmodium berghei [1] of 34%. At 5 µM the inhibition in the data set on Plasmodium berghei [2] was 82%. In the data set with Plasmodium berghei [4], this compound displayed an inhibition at 15 µM of 93%. In data set [3], the Activity result is on record as “Non-toxic”.

In turn, `COc1ccc(C(=O)O[C@@H](C=C(C)C)C[C@@H](C)[C@H]2CC[C@@]3(C)[C@@H]4[C@@H](OC)C=C5[C@@H](CC[C@H](O)C5(C)C)[C@]4(C)CC[C@]23C)cc1` [KARAVOATE M] registered an inhibition at 1 µM with Plasmodium berghei [1] of 14%. In the data set with Plasmodium berghei [2], this compound returned an inhibition at 5 µM of 87%. The same compound returned an inhibition at 15 µM in the data set with Plasmodium berghei [4] of 99%. For the same compound, in data set [3], the Activity entry is listed as “Non-toxic”.

On to `COC(C)(C)/C=C/C[C@@H](C)[C@H]1CC[C@@]2(C)[C@@H]3[C@@H](O[C@H]4O[C@@H](CO)[C@H](O)[C@H](O)[C@@H]4O)C=C4[C@@H](CC[C@H](O)C4(C)C)[C@]3(C)CC[C@]12C` [BALSAMINOSIDE A], for which the Activity entry in data set [3] is on record as “Toxic”.

For the compound `CO[C@H]1C=C2[C@@H](CC[C@H](O)[C@]2(C)CO)[C@]2(C)CC[C@]3(C)[C@@H]([C@H](C)C[C@@H](O)C=C(C)C)CC[C@@]3(C)[C@H]12` [BALSAMINOL B], 5 µM produced 47% inhibition with Plasmodium berghei [2]. Moreover, the Activity entry in data set [3] was “Non-toxic”.

For the compound `CC(C)=C[C@H](O)C[C@@H](C)[C@H]1CC[C@@]2(C)[C@@H]3[C@@H](O)C=C4[C@@H](CC[C@H](O)C4(C)C)[C@]3(C)CC[C@]12C` [BALSAMINOL F], the inhibition result in the data set on Plasmodium berghei [1] and in the data set on Plasmodium berghei [4] was “Active” in each case. In the data set on Plasmodium berghei [2], at 5 µM the inhibition was 32%. Also, the Activity entry in data set [3] is on record as “Non-toxic”.

On to `CCCC(=O)O[C@@H](C=C(C)C)C[C@@H](C)[C@H]1CC[C@@]2(C)[C@@H]3[C@@H](OC)C=C4[C@@H](CC[C@H](O)C4(C)C)[C@]3(C)CC[C@]12C` [KARAVOATE E], for which the inhibition at 1 µM with Plasmodium berghei [1] is 39%. Besides, in the data set with Plasmodium berghei [2], testing at 5 µM gave an inhibition of 89%. In the data set on Plasmodium berghei [4], 15 µM produced 99% inhibition. The Activity entry in data set [3] is “Toxic”.

The values are drawn from ChEMBL document CHEMBL3351681, “Dual-stage triterpenoids from an African medicinal plant targeting the malaria parasite” (Bioorg Med Chem, 2014).
